Patent EP2140864A2 (H. Lundbeck A/S, priority 2001, dated 2002)

Biological target: T1, human histamine H1 receptor (Homo sapiens, UniProt P35367)
T1 construct: expressed in transfected cells
Experiment: Radioligand binding, histamine H1 receptor
Conditions: for selectivity ratio hH1: Table 10, Ki hH1 divided by Ki hGAL3
Text: Other receptors: Cell membranes expressing human dopamine D1, D2, D4 and rat D3 receptors were purchased through BioSignal, Inc. (Montreal, Canada). Binding assays using the histamine H1 receptor; dopamine receptors; and α1A, α1E, and α2 adrenergic receptors may be carried out according to the procedures described in U.S. Patent No. 5,780,485, the disclosure of which is hereby incorporated by reference in its entirety into this application. Binding assays using the dopamine D5 receptor may be carried out according to the procedures described in U.S. Patent No. 5,882,855, the disclosure of which is hereby incorporated by reference in its entirety into this application. Binding assays for the human α1D adrenergic receptor may be carried out according to the procedures described in U.S. Patent No. 6,156,518, the disclosure of which is hereby incorporated by reference in its entirety into this application.
Binding data were analyzed using nonlinear regression and statistical techniques available in the GraphPAD Prism package (San Diego, CA). Enzymatic assay data were derived from a standard curve of reference compound data.

T1 sequence (P35367 whole entry): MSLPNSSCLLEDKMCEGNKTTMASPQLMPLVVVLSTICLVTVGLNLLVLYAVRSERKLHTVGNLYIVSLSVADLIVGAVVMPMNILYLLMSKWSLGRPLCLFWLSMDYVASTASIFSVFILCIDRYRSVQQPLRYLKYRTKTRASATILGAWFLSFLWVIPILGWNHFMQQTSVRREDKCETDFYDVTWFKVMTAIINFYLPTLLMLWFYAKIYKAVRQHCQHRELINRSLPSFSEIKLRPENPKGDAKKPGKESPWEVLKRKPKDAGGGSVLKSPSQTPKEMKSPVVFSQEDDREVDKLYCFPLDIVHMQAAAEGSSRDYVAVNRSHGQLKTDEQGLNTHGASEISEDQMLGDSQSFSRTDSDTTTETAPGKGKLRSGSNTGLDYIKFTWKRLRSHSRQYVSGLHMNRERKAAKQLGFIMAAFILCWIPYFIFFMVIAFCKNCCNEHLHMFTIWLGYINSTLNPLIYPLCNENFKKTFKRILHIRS

Row | Compound | Ki (Table 9, read-out: hH1 Ki) | selectivity ratio hH1
1 | CN(C)c1cc(Nc2ccc(Cl)c(Cl)c2)nc(Nc2ccccc2)n1 [Example 60] | 39.9 µM | >100
2 | O=C1C(=Nc2cccc(C(F)(F)F)c2)c2ccccc2N1c1ccccc1 [Example 92, 1-PHENYL-3- [[3-(TRIFLUOROMETHYL)PHENYL]IMINO]-1,3-DIHYDRO-2H-INDOL-2-ONE] |  | >100
